Reference: publication PMC9693510, “High-Throughput Metabolic Soft-Spot Identification in Liver Microsomes by LC/UV/MS: Application of a Single Variable Incubation Time Approach” (Molecules, 2022)
Where two headings read alike, the source gives them in different places.

Key:
[1] = Metabolic soft-spot determination in HLM using LC/UV/Q-TOF (Triple TOF); settings: 8 min
Description: (§1) Supernatants of incubation samples were dried under nitrogen and then reconstituted in 100 μL of 5% acetonitrile in water prior to analysis using LC/UV/HRMS.
(§2) An LC/MS system consisted of an LC instrument (Shimadzu HPLC with a photodiode array detector (PDA), Shimadzu, Kyoto, Japan) and TripleTOF (AB 4600, Sciex, Framingham, MA, USA) was employed. LC separation was carried out using a Phenomenex Kinetex-C18 (2.1 × 150 mm, 2.6 μm, CA) and a mobile phase comprised of 0.1% formic acid (v/v) in water (solvent A) and 0.1% formic acid in acetonitrile (v/v) (solvent B). The total running time was 5 min, and the flow rate was 0.4 mL/min. […] The mass spectrometer was operating in the positive electrospray ionization mode in the m/z range of 100–1000. Dynamic background subtraction (DBS) was employed to record full-scan MS and MS/MS data simultaneously. Two approaches were used for finding and confirming protonated molecules of major metabolites. One approach was to directly get the information by reviewing full-scan MS spectra of peaks in unprocessed LC/MS dataset, which had very similar LC retention times and peak shapes to those of major metabolites shown in corresponding LC/UV profiles.

[2] = Metabolic soft-spot determination in HLM using LC/UV/Qtrap
Description: A specific incubation time for the individual test compounds was set up for 1–20 min based on their metabolic stability T1/2 values (Table 1). An LC/UV/Qtrap system with an Ultimate XB-C18 column (100 mm × 2.1 mm, 1.8 µm, Welch, China) was employed for quantitative and qualitative analyses of metabolites of the test compounds in HLM incubations. The mobile phases were the same as the metabolic stability assay, and the flow rate was 0.3 mL/min. […] The mass spectrometer was operated in positive ion mode using a successive multiple ion monitoring-triggered enhanced product ion scan (MIM-EPI) mode. […] All the ion source parameters were set as the following values: CUR: 30 psi; IS: 5500 V; TEM: 500 °C; GS1 and GS2: 50 psi; DP: 70 V. A criterion for the data-dependent EPI was set for the three most intense ions in each dynamic background subtraction (DBS) survey scan spectrum with an intensity threshold of 500 cps. The CE was set to 5 eV for the survey scan and 40 eV with CE spread (CES) of 15 eV for the dependent EPI scan. The scan speed for ER and EPI were 250 amu/s and 20,000 amu/s, respectively. LC/UV profiles of individual incubation were generated to reveal major metabolites using wavelengths on the λmax of parent compounds (Table S1). Protonated molecules of major metabolites were determined by matching major metabolite peak(s) in LC/UV profiles to similar ion peaks shown in LC/MS profiles from the MIM scanning or data processing. EIC, PIF, and NLF tools on PeakView SoftwareTM 1.2 (AB SCIEX, Foster City, CA, USA) were used to process LC/MS and LC/MS2 datasets. MS/MS spectral data of major metabolites were retrieved from corresponding LC/MS2 data based on their protonated molecules. The structural characterization of major metabolites was carried based on interpretation of their MS/MS spectra and biotransformation knowledge.

[3] = HLM, 10 µM, 60 min, cited from earlier work
[4] = in vitro; settings: human, microsomes, pH 7.4
[5] = human, 3 µM, pH 7.4; for Major metabolites relative abundance (% of total UV peak areas of drug and its metabolites): 60 min
Description: as §1, §2

[6] = 0.5 µM, HLM 0.5 mg/mL, 60 min, LC/MS analysis of the parent drug; cited from earlier work
[7] = Determination of metabolic stability in HLM; settings: human, microsomes, pH 7.4

SMILES: CNCCCC(C#N)(c1ccc(OC)c(OC)c1)C(C)C (centres unmarked) [V1]
- Major metabolites relative abundance (% of total UV peak areas of drug and its metabolites) ([1]; verapamil 5 μM): 6.1%

SMILES: O=C1CC2(CCCC2)C(O)C(=O)N1CCCCN1CCN(c2ncccn2)CC1 (centres unmarked) [B10]
- Major metabolites relative abundance (% of total UV peak areas of drug and its metabolites) ([1]; buspirone 3 μM): 16.5%

SMILES: CNCCCC(C#N)(c1ccc(OC)c(OC)c1)C(C)C (centres unmarked) [VM2]
- Major metabolites relative abundance (% of total UV peak areas of drug and its metabolites) ([2]; human, 4 min, 3 µM, pH 7.4): 8.9%

SMILES: OCc1ncc2n1-c1ccc(Cl)cc1C(c1ccccc1F)=NC2 [MM2]
- Major metabolites relative abundance (% of total UV peak areas of drug and its metabolites) ([2]; midazolam 3 μM, 2 min, HLM): Mono-oxidation: MM2 (29.0%)

SMILES: CN(C)CCC1(c2ccccc2)CCc2ccccc2C1=O (centres unmarked) [nafenodone]
- Disappearance of the parent ([3]; estimated): over 80%
- Number of oxidative metabolites formed [3]: 26

SMILES: CCN(CC)Cc1cc(Nc2ccnc3cc(Cl)ccc23)ccc1O [Amodiaquine, amodiaquine]
- Disappearance of the parent ([2]; human, 1 min, 3 µM, pH 7.4): 23%
- The parent drug relative abundance (% of total UV peak areas of drug and its metabolites) ([2]; human, 1 min, 3 µM, pH 7.4): Amodiaquine (77.0%)
- half-life at 0.5 µM [4]: 1.3 min

SMILES: COc1ccc(CCNCCCC(C#N)(c2ccc(OC)c(OC)c2)C(C)C)cc1OC (centres unmarked) [V5]
- Major metabolites relative abundance (% of total UV peak areas of drug and its metabolites) ([1]; verapamil 5 μM): 14.7%

SMILES: COc1ccc(CCNCCCC(C#N)(c2ccc(OC)c(OC)c2)C(C)C)cc1OC (centres unmarked) [VM8]
- Major metabolites relative abundance (% of total UV peak areas of drug and its metabolites) ([2]; human, 4 min, 3 µM, pH 7.4): 19.0%

SMILES: O=C1CC2(CCCC2)CC(=O)N1CCCCN1CCN(c2ncccn2)CC1 [Buspirone, buspirone, reference compound]
- The parent drug relative abundance (% of total UV peak areas of drug and its metabolites) ([5]; 8 min): Buspirone (59.1%)
- T1/2 in HLM [6]: Buspirone ^d (7.6 min)

SMILES: CCNCc1cc(Nc2ccnc3cc(Cl)ccc23)ccc1O [AM1]
- Major metabolites relative abundance (% of total UV peak areas of drug and its metabolites) ([2]; human, 1 min, 3 µM, pH 7.4): Deethylation: AM1 (26.5%)

SMILES: CN1CCN2c3ncc(O)cc3Cc3ccccc3C2C1 (centres unmarked) [M1]
- Major metabolites relative abundance (% of total UV peak areas of drug and its metabolites) [5]: 10.7%

SMILES: COc1ccc2c(c1)[C@]13CCCC[C@@H]1[C@H](C2)N(C)CC3 [Dextromethorphan, dextromethorphan]
- The parent drug relative abundance (% of total UV peak areas of drug and its metabolites) ([2]; dextromethorphan 3 μM, 30 min, HLM): Dextromethorphan (75.5%)
- The parent drug relative abundance (% of total UV peak areas of drug and its metabolites) ([2]; dextromethorphan 3 μM, 30 min, HLM, listed as dextromethorphan): 75.5%
- half-life at 0.5 µM [7]: 24 min

SMILES: O=C1CC2(CCCC2)CC(=O)N1CCCCN1CCN(c2ncc(O)cn2)CC1 [B12]
- Major metabolites relative abundance (% of total UV peak areas of drug and its metabolites) ([1]; buspirone 3 μM): 5.2%

SMILES: O=C1CC2(CCC(O)C2)CC(=O)N1CCCCN1CCN(c2ncccn2)CC1 (centres unmarked) [B3]
- Major metabolites relative abundance (% of total UV peak areas of drug and its metabolites) ([1]; buspirone 3 μM): 12.1%

SMILES: Cc1ncc2n1-c1ccc(Cl)cc1C(c1ccccc1F)=NC2 [Midazolam, midazolam]
- Disappearance of the parent ([2]; midazolam 3 μM, 2 min, HLM): 31%

SMILES: O=C1CC2(CCCC2)CC(=O)N1CCCC[N+]1([O-])CCN(c2ncccn2)CC1 [B15]
- Major metabolites relative abundance (% of total UV peak areas of drug and its metabolites) ([1]; buspirone 3 μM): 7.1%

SMILES: c1ccc2c(c1)Cc1cccnc1N1CCNCC21 (centres unmarked) [M2]
- Major metabolites relative abundance (% of total UV peak areas of drug and its metabolites) [5]: 8.1%
